The text below walks through data of the SangsterLogP compilation.

The nature of one data set: method code SF-AS, from Lembo, S.; Sasso, V.; Silipo, C.; Vittoria, A. (1983). Physicochemical properties and drug design in a set of analgesics. Farmaco [Sci], 38(10)750-761. As to conditions: pH 7.4.
For orientation: logD means lipophilicity at a set pH, counting ionised and neutral species. `N#CCNc1ccccc1C(N)=O` yielded a logD of 0.5.

In the case of `CCCCNc1ccccc1C(N)=O`, the logD worked out at 2.33.

In the case of `CC(=O)c1ccccc1NCC#N`, the logD was 1.58.

Regarding `COc1ccccc1NCC#N`, the logD is 1.3.

Compound `CC(=O)c1ccccc1NC(=O)C(Cl)Cl` returned a logD of 2.65.

Regarding `COc1ccccc1NCC(C)=O`, the logD stood at 1.49.

In turn, `COc1ccccc1NC(=O)C(Cl)Cl` gave a logD of 2.41.

In turn, `CC(=O)CNc1ccccc1C(N)=O` showed a logD of 0.61.

In turn, `CCCCNc1ccccc1OC` had a pH-dependent lipophilicity (logD) of 2.85.

Experiment in another data set: not given
Conditions: not given
One may read the logP as the decadic logarithm of the partition coefficient of the neutral form, usually between octanol and water. A high value points to a more lipophilic compound. `CC(=O)c1ccccc1NCCO`: the logP was 1.28.

`CC(=O)Nc1ccccc1C(C)=O` showed a logP of 1.4.

`COc1ccccc1NCCO` had a logP of 1.07.

In the case of `CC(C)Nc1ccccc1C(N)=O`, the logP was 1.87.

In turn, `CC(=O)Nc1ccccc1C(N)=O` gave a logP of 0.31.

Compound `COc1ccccc1NCC(N)=O` yielded a logP of 0.63.

`NC(=O)c1ccccc1NC(=O)C(Cl)Cl` yielded a logP of 1.51.

The compound `COc1ccccc1NC(C)=O` registered a lipophilicity (logP) of 1.02.
